Here are results for 4 compounds from patent publication US20260069578A1, “TREATMENT OF NEUTROPHILIC DERMATOSES” (UNION THERAPEUTICS A/S, priority 2022, published 2026).

≈ marks a conversion by molar mass, not a printed value.

The test system of one series is resistant vegetative PG. To be noted: one case, concomitantly with oral prednisone; cited from earlier work.
Series [1] relates to TNF-α secretion from human whole blood. As to the kind of experiment: Whole blood TNF-α secretion assay (LPS or SEB stimulated). It is filed as cell-based. The conditions noted are these: 24 h, SEB 1 μg/mL, donor 2.
The next series relates to LPS-induced TNF-α. Briefly: LPS-induced TNF-α in ferrets after single oral administration. To be noted: LPS 3 mg/kg ip.
The test system of series [2] is conscious, unrestrained ferret. As to the kind of experiment: Emesis study in ferrets. The conditions noted are these: oral, 1, 3, 10 and 30 mg/kg.
For another series, the target named is PDE4A10 (Homo sapiens, UniProt P27815). In kind it is biochemical.
In a further series the target is PDE4A4 (Homo sapiens, UniProt P27815). In kind it is biochemical.
For another series, the target named is PDE4A1 (Homo sapiens, UniProt P27815).
The test system of series [3] is pyoderma gangrenosum with concomitant HS / PASH syndrome. As to the kind of experiment: Clinical study in two patients. In kind it is in vivo, human. How it is done:
The efficacy of the peroral anti-inflammatory PDE4-inhibitor Orismilast was investigated in two patients, one with pyoderma gangrenosum and concomitant HS, the other with PASH syndrome. Patients received a titrated dose of Orismilast of up to 40 mg twice daily for 16 weeks.

Another series has as its target PDE4D7 (Homo sapiens, UniProt Q08499). In kind it is biochemical. As to the method: (§1) Enzyme Preparations: Partially purified human recombinant phosphodiesterases (PDEs) were obtained by cloning cDNA and expressing in S. frugiperda insect cells using a baculovirus expression system. Cells are harvested from culture by centrifuging at 400×g for 5 minutes. Cell pellet is resuspended in 20 ml of RIPA Buffer (150 mM NaCl, 10 mM Tris, 0.1% NP-40, pH8.3), 4 ml/200 ml of culture, plus protease inhibitors (100 μl/10 ml) and incubated on ice for 10-20 minutes then spun at 3500×g for 10 minutes at 4° C. Supernatant is kept and the pellet thrown away.
(§2) Tritium-labelled cyclic AMP is hydrolysed to 5′-AMP o by PDE. The 5′-AMP is then further hydrolysed to adenosine by nucleotidase in snake venom. An anion-exchange resin binds all charged nucleotides and leaves [^3H]adenosine as the only labelled compound to be counted by liquid scintillation.
(§3) 50 μl of diluted PDE enzyme was incubated with 50 μl of [^3H]-cAMP (specific activity 25 Ci/mmol) and 11 μl of 50% DMSO (or compound dilution) for 20 minutes at 30° C. The enzyme was diluted in 20 mM Tris HCl pH7.4 (×2.2 final concentration) and [3H]-cAMP was diluted in 10 mM MgCl2, 40 mM Tris HCl pH 7.4 (×2.2 final concentration). Reactions were carried out in Greiner 96 deep well 1 ml master-block. The plates were centrifuged for 9 seconds before the 20 minutes incubation. […] After incubation 200 μl Dowex resin (1×8, 200-400 mesh) was added and the plate shaken for 20 minutes then centrifuged for 3 minutes at 1000×g. 5 μl of supernatant was removed and added to 200 μl of MicroScint-20 in white plates (Greiner 96 well Optiplate) and shaken for 30 minutes before reading on Perkin Elmer TopCount Scintillation Counter. […] values were calculated using GraphPad Prism software (version 8).

The target in another series is PDE4D5 (Homo sapiens, UniProt Q08499). It is filed as biochemical. As to the method: as §1, §2, §3
Another series addresses PDE4B2 (Homo sapiens, UniProt Q07343). In kind it is biochemical. As to the method: as §1, §2, §3
Another series concerns the target PDE4B3 (Homo sapiens, UniProt Q07343). It is filed as biochemical. As to the method: as §1, §2, §3
For another series, the target named is PDE4B1 (Homo sapiens, UniProt Q07343). In kind it is biochemical. As to the method:
as §1, §2, §3

A further series concerns the target PDE4D3 (Homo sapiens, UniProt Q08499). In kind it is biochemical. To be noted: value generated by extrapolation of data. How it is done:
as §1, §2, §3

A further series concerns the target PDE4D2 (Homo sapiens, UniProt Q08499). It is filed as biochemical. The conditions noted are these: value generated by extrapolation of data. As to the method:
as §1, §2, §3

In a further series the target is PDE4D1 (Homo sapiens, UniProt Q08499). It is filed as biochemical. As to the method: as §1, §2, §3
In series [4] the target is purified human recombinant PDE4D protein (Homo sapiens, UniProt Q08499). Briefly: PDE4D scintillation proximity assay (SPA). It is filed as biochemical. How it is done:
PDE4 enzymatic activity was measured in a scintillation proximity assay using purified human recombinant PDE4D protein.

Where [5] appears, read: Case 1, PASH syndrome, 20 mg twice daily.
Setting [6] is: Case 2, PG and HS, 30 plus 40 mg daily.

Chain of PDE4D2 (Q08499 303-809): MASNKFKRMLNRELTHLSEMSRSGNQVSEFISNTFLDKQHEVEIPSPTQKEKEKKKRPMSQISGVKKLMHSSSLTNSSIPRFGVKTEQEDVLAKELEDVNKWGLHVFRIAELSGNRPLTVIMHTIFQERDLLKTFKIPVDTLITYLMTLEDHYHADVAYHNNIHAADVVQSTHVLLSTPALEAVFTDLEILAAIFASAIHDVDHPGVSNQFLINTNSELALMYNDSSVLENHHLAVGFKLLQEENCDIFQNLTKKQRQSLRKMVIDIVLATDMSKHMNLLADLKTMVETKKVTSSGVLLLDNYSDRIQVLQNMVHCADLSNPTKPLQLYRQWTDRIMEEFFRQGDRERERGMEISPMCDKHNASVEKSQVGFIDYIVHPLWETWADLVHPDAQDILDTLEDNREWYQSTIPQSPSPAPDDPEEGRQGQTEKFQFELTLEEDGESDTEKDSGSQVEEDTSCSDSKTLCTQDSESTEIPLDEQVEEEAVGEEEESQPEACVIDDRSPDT
Chain of PDE4B3 (Q07343 1-721 isoform Q07343-3): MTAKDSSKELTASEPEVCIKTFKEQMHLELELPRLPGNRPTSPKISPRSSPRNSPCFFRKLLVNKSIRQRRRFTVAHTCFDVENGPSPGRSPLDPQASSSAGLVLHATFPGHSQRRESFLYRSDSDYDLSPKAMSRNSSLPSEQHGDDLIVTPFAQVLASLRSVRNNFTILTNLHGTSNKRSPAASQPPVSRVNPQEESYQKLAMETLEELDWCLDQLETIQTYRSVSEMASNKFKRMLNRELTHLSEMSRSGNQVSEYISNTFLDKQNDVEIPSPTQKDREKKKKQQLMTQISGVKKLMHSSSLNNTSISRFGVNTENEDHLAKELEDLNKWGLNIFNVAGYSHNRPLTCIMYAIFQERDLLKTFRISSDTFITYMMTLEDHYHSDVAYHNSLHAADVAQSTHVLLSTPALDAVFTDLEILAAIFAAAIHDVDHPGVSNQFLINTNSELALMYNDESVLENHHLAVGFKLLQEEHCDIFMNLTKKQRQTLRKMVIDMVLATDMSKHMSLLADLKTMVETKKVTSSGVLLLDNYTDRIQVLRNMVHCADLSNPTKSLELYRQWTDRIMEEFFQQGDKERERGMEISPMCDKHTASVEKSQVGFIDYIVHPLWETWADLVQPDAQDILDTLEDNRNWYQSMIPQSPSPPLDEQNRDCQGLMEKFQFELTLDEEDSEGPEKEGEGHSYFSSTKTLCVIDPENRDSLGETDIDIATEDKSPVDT
Chain of PDE4D5 (Q08499 1-745 isoform Q08499-6): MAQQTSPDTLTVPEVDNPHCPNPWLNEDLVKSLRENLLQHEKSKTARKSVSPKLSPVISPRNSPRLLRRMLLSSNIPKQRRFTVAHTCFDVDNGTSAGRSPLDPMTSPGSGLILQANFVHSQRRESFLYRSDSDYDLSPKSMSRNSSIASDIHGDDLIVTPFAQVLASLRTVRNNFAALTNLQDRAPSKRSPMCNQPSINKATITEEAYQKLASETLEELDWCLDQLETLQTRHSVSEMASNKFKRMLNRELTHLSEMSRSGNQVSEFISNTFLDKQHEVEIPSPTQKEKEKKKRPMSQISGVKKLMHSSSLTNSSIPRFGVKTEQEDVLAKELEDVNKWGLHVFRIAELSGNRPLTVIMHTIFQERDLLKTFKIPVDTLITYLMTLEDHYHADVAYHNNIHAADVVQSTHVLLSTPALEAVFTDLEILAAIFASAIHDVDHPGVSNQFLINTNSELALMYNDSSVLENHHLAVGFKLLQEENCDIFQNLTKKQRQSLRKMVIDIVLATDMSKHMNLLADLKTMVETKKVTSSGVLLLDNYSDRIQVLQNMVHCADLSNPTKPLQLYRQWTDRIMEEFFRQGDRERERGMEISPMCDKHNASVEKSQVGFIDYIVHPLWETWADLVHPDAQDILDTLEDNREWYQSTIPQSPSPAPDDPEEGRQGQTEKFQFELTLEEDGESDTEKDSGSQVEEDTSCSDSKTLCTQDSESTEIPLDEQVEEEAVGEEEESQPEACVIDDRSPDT
Chain of PDE4D1 (Q08499 1-584 isoform Q08499-4): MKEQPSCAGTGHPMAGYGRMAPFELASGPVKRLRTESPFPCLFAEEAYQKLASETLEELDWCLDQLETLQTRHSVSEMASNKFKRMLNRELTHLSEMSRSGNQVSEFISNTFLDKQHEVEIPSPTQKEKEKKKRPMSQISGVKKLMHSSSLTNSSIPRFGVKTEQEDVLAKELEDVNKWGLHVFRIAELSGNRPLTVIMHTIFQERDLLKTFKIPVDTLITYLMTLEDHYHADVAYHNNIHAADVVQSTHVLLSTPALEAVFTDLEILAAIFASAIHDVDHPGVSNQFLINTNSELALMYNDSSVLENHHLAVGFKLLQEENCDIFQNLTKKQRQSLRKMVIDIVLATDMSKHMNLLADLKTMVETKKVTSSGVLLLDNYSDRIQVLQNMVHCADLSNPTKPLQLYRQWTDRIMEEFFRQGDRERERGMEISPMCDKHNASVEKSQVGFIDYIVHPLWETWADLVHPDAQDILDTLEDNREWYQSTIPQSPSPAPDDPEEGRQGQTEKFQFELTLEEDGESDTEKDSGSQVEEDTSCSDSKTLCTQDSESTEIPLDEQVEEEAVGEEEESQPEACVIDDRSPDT
Chain of PDE4B2 (Q07343 1-564 isoform Q07343-2): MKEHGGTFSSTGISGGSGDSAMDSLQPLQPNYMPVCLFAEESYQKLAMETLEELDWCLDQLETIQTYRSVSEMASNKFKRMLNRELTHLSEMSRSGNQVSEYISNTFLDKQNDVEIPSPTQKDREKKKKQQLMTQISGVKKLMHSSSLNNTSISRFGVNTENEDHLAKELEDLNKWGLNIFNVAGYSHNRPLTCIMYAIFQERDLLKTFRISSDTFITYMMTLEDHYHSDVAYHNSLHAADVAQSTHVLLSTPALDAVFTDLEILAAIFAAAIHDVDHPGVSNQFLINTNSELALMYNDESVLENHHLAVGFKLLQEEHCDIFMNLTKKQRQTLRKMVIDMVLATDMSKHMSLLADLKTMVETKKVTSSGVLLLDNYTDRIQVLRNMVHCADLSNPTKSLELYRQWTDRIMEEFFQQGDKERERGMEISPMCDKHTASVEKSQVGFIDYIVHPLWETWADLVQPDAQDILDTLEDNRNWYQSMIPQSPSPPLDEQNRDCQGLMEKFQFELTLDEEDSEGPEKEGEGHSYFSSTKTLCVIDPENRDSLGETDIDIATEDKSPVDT
Chain of PDE4A10 (P27815 1-825 isoform P27815-6): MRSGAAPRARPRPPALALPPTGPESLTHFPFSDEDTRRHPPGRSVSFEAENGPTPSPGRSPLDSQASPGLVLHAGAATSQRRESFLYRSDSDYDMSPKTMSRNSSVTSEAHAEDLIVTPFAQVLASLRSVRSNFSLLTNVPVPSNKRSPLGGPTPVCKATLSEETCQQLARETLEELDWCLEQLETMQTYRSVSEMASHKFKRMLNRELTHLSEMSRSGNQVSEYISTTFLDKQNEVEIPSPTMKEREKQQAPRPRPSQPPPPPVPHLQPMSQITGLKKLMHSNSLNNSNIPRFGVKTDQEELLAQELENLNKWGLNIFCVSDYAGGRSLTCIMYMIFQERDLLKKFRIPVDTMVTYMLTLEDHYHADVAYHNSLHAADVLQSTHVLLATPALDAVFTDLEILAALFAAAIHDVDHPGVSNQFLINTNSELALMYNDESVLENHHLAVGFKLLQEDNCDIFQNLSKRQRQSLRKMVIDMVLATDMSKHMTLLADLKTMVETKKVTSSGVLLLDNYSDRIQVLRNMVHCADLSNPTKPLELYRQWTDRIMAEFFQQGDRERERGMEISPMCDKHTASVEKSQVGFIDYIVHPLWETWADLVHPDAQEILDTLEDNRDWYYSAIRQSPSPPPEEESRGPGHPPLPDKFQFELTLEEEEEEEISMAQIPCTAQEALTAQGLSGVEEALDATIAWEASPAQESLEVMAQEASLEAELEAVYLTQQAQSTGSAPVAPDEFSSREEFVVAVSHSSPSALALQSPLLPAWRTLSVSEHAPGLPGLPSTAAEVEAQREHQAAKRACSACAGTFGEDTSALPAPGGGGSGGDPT
Chain of purified human recombinant PDE4D protein (Q08499 whole entry): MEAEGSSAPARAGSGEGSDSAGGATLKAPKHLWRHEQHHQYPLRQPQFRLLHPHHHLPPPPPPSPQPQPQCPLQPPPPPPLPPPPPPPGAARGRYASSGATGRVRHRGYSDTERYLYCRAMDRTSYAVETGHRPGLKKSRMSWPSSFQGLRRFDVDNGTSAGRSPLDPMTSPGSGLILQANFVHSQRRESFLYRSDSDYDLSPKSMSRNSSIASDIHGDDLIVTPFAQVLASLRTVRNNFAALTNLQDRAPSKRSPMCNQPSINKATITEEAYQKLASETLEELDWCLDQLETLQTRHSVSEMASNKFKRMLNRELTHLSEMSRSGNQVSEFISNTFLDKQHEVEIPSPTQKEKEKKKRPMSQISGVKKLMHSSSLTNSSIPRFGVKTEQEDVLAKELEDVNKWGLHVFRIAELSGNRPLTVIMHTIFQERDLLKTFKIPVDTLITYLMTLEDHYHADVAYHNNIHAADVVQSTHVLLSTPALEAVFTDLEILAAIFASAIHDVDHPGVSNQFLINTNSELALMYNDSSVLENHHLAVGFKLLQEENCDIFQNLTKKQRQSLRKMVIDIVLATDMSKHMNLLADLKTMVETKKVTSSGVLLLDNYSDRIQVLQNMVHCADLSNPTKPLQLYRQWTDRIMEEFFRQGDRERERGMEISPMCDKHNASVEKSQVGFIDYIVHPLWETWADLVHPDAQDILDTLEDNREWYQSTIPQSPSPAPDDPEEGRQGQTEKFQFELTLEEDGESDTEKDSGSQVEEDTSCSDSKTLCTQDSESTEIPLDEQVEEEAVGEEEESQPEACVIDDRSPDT

As for `CCOc1cc([C@@H](CS(C)(=O)=O)N2C(=O)c3cccc(NC(C)=O)c3C2=O)ccc1OC` [Apremilast], the Lesion healing result in the series with resistant vegetative PG is “Complete healing of one lesion and partial healing of another”.
In the case of `C[C@@H]1CCN(C(=O)CC#N)C[C@@H]1N(C)c1ncnc2[nH]ccc12` [Tofacitinib], the Emax in series [1] was 100%.
Regarding `O=C(Cc1c(Cl)c[n+]([O-])cc1Cl)c1ccc(OC(F)F)c2c1OC1(CCS(=O)(=O)CC1)O2` [Compound (I), 2-(3,5-Dichloro-1-oxido-pyridine-4-yl)-1-(7-difluoro-methoxy-2′,3′,5′,6′-tetrahydro-spiro[1,3-benzodioxole-2, 4′-(4H)-thiopyran-1′,1′-dioxide]-4-yl)ethanone], the “Increase of TNF-α levels observed at 1 hour after LPS” value in the series on LPS-induced TNF-α (oral, 1, 3 and 10 mg/kg) was “attenuated”. In addition, the “Health status or body weight gain” value in [2] was “not to influence”. Moreover, the IC50 is 52.3 nM at PDE4A10; 11.3 nM at PDE4A4; 16.4 nM at PDE4A1; 2.94 nM at PDE4D7; 2.18 nM against PDE4D5; 5.6 nM against PDE4B2. In addition, the IC50 against PDE4B3 was 2.94 nM; at PDE4B1, 15.7 nM; at PDE4D3, 1.75 nM; on PDE4D2, 2.03 nM; against PDE4D1, 8.67 nM. The HS lesions entry is reported as “gradually improved” in [3] (setting [5]) and “remained calm” in [3] (setting [6]). For the same compound, the figures for the pyoderma wounds result in [3] (setting [5]) and in series [3] (setting [6]) were “slowly recovered” and “completely healed”, respectively. Also, the “EC50 values, PDE4D SPA” value in series [4] was 7.5 ng/mL (≈ 0.0147 µM).
For `O=C(Nc1c(Cl)cncc1Cl)c1ccc(OC(F)F)c(OCC2CC2)c1` [Roflumilast, reference compound], the “Increase of TNF-α levels observed at 1 hour after LPS” value with LPS-induced TNF-α (oral, 1 and 3 mg/kg) was “attenuated”. In series [2], the “Health status or body weight gain” value is “did not influence”.
